# Reference: ChEMBL document CHEMBL4190346, “Structure-based design, synthesis, and biological evaluation of withaferin A-analogues as potent apoptotic inducers” (Eur J Med Chem, 2017)
# Experiments:
# HeLa [1] = experiment: Cytotoxicity against human HeLa cells assessed as reduction in cell viability using compound addition to cell culture cells in lag phase of growth and incubated for 48 hrs by MTT assay; format: functional, cell-based; conditions: Homo sapiens, HeLa, 48 h; read-out: IC50
# Vero [2] = experiment: Cytotoxicity against African green monkey Vero cells assessed as reduction in cell viability using compound addition to cell culture cells in log phase of growth and incubated for 48 hrs by MTT assay; format: cell-based, Chlorocebus sabaeus; conditions: Chlorocebus sabaeus, Vero, 48 h; read-out: IC50
# Vero [3] = experiment: Cytotoxicity against African green monkey Vero cells assessed as reduction in cell viability using compound addition to cell culture cells in lag phase of growth and incubated for 48 hrs by MTT assay; format: cell-based, Chlorocebus sabaeus; conditions: Chlorocebus sabaeus, Vero, 48 h; read-out: IC50
# MCF7 [4] = experiment: Cytotoxicity against human MCF7 cells assessed as reduction in cell viability using compound addition to cell culture cells in log phase of growth and incubated for 48 hrs by MTT assay; format: functional, cell-based; conditions: Homo sapiens, MCF7, 48 h; read-out: IC50
# HeLa [5] = experiment: Cytotoxicity against human HeLa cells assessed as reduction in cell viability using compound addition to cell culture cells in log phase of growth and incubated for 48 hrs by MTT assay; format: functional, cell-based; conditions: Homo sapiens, HeLa, 48 h; read-out: IC50
# A549 [6] = experiment: Cytotoxicity against human A549 cells assessed as reduction in cell viability using compound addition to cell culture cells in lag phase of growth and incubated for 48 hrs by MTT assay; format: functional, cell-based; conditions: Homo sapiens, A549, 48 h; read-out: IC50
# A549 [7] = experiment: Cytotoxicity against human A549 cells assessed as reduction in cell viability using compound addition to cell culture cells in log phase of growth and incubated for 48 hrs by MTT assay; format: functional, cell-based; conditions: Homo sapiens, A549, 48 h; read-out: IC50
# MCF7 [8] = experiment: Cytotoxicity against human MCF7 cells assessed as reduction in cell viability using compound addition to cell culture cells in lag phase of growth and incubated for 48 hrs by MTT assay; format: functional, cell-based; conditions: Homo sapiens, MCF7, 48 h; read-out: IC50
SMILES,IC50 (HeLa [1]),IC50 (Vero [2]),IC50 (Vero [3]),IC50 (MCF7 [4]),IC50 (HeLa [5]),IC50 (A549 [6]),IC50 (A549 [7]),IC50 (MCF7 [8])
CC1=C(COC(=O)c2ccc(Br)cc2)C(=O)O[C@@H]([C@@H](C)[C@H]2CC[C@H]3[C@@H]4C[C@H]5O[C@]56[C@@H](O)C=CC(=O)[C@]6(C)[C@H]4CC[C@]23C)C1,1.2 µM,0.7 µM,0.5 µM,2.3 µM,3.8 µM,2.9 µM,4.2 µM,1 µM
CCCCCCCC(=O)OCC1=C(C)C[C@H]([C@@H](C)[C@H]2CC[C@H]3[C@@H]4C[C@H](Cl)[C@]5(O)[C@@H](O)C=CC(=O)[C@]5(C)[C@H]4CC[C@]23C)OC1=O,29.5 µM,16.1 µM,16.4 µM,13.8 µM,32.9 µM,31.3 µM,> 40 µM,15.1 µM
CC1=C(C=O)C(=O)O[C@@H]([C@@H](C)[C@H]2CC[C@H]3[C@@H]4C[C@H]5O[C@]56C(=O)C=CC(=O)[C@]6(C)[C@H]4CC[C@]23C)C1,12.3 µM,13.4 µM,12.8 µM,11 µM,18.5 µM,16.9 µM,16.1 µM,8.9 µM
CC1=C(CCl)C(=O)O[C@@H]([C@@H](C)[C@H]2CC[C@H]3[C@@H]4C[C@H]5O[C@]56[C@@H](O)C=CC(=O)[C@]6(C)[C@H]4CC[C@]23C)C1,2.5 µM,0.6 µM,0.5 µM,1 µM,2.8 µM,2 µM,3.6 µM,1.1 µM
COCC1=C(C)C[C@H]([C@@H](C)[C@H]2CC[C@H]3[C@@H]4C[C@H]5O[C@]56[C@@H](O)[C@@H](OC)CC(=O)[C@]6(C)[C@H]4CC[C@]23C)OC1=O,> 40 µM,> 40 µM,36.9 µM,21.6 µM,> 40 µM,> 40 µM,> 40 µM,26.9 µM
CC1=C(CO)C(=O)O[C@@H]([C@@H](C)[C@H]2CC[C@H]3[C@@H]4C[C@H]5O[C@]56[C@@H](O)CC[C@@H](O)[C@]6(C)[C@H]4CC[C@]23C)C1,> 40 µM,> 40 µM,> 40 µM,> 40 µM,> 40 µM,> 40 µM,> 40 µM,> 40 µM
CC1=C(C)C(=O)O[C@@H]([C@@H](C)[C@H]2CC[C@H]3[C@@H]4C[C@H]5O[C@]56[C@@H](O)CCC(=O)[C@]6(C)[C@H]4CC[C@]23C)C1,> 40 µM,> 40 µM,> 40 µM,> 40 µM,> 40 µM,> 40 µM,> 40 µM,> 40 µM
CC1=C(C)C(=O)O[C@@H]([C@@H](C)[C@H]2CC[C@H]3[C@@H]4C[C@H]5O[C@]56[C@@H](O)CC[C@@H](O)[C@]6(C)[C@H]4CC[C@]23C)C1,> 40 µM,> 40 µM,> 40 µM,> 40 µM,> 40 µM,> 40 µM,> 40 µM,> 40 µM
CC1=C(CCl)C(=O)O[C@@H]([C@@H](C)[C@H]2CC[C@H]3[C@@H]4C[C@H]5O[C@]56[C@H](Cl)C=CC(=O)[C@]6(C)[C@H]4CC[C@]23C)C1,3.1 µM,3.1 µM,1.9 µM,4.8 µM,7.9 µM,9.6 µM,18.1 µM,4.1 µM
CC1=C(CO)C(=O)O[C@@H]([C@@H](C)[C@H]2CC[C@H]3[C@@H]4C[C@@H](O)[C@]56ON[C@H](CC(=O)[C@]5(C)[C@H]4CC[C@]23C)[C@@H]6O)C1,> 40 µM,> 40 µM,> 40 µM,> 40 µM,> 40 µM,> 40 µM,> 40 µM,> 40 µM
COC(=O)CCC(=O)OCC1=C(C)C[C@H]([C@@H](C)[C@H]2CC[C@H]3[C@@H]4C[C@H](Cl)[C@]5(O)[C@@H](OC(=O)CCC(=O)OC)C=CC(=O)[C@]5(C)[C@H]4CC[C@]23C)OC1=O,14 µM,4.1 µM,3.9 µM,4.8 µM,8 µM,7.8 µM,8.9 µM,5.5 µM
